Target: PCP recognition sites
Assay: [3H]TCP Radioreceptor Assay (internal screen)
Type: binding, rat (male Sprague-Dawley
Settings: rat whole brain membranes, room temperature, 25 min; for Ki: ~1 nM [3H]TCP
Experimental: [^3 H]TCP Radioreceptor Assay (internal screen)
[^3 H]TCP binding to PCP recognition sites was performed as described by Vignon et al. Brain Research 1983, 280, 194°197. Male Sprague-Dawley rats were sacrificed by decapitation, and whole brains were homogenized in 10 volumes (wt/vol) of cold Tris-HCl buffer (50 mM, pH 7.7) using a Brinkmann Polytron (setting 6, 30 sec). The homogenate was centrifuged at 40,000×g for 10 min at 4° C. The supernatant was decanted, and the homogenization and centrifugation steps were repeated twice as described above. Following this, the pellet was resuspended in Tris-HCl (5 mM, pH 7.7) at a tissue concentration of 0.5°0.75 g/ml, and one ml aliquots were frozen at -70° C. until use. The binding characteristics for PCP recognition sites were not altered by the freezing of membrane suspensions.
On the day of the assay, membrane aliquots were thawed, resuspended in fresh 5 mM Tris-HCl buffer at a tissue concentration of 1 mg/ml, and stored on ice until use. Each assay tube contained 100 μl of [^3 H]TCP at a final concentration of approximately 1 nM, 100 μl of various concentrations of the compounds of interest, 500 μl of the tissue suspension and 300 of buffer to a final assay volume of 1 ml and a final protein concentration of 0.5 mg/tube. Non-specific binding was defined by addition of a final concentration of 100 μM PCP to blank tubes. All tubes were incubated at room temperature for 25 min before termination of the reaction by rapid filtration over Whatman GF/B glass fiber filters that had been presoaked in a solution of 0.5% polyethylenimine for at least 1 hr prior to use. Filters were washed with three 4 ml volumes of cold Tris buffer. Following addition of scintillation cocktail, the amount of bound radioactivity was determined by liquid scintillation spectrometry using a Beckman LS 5000TA liquid scintillation counter with an efficiency for tritium of approximately 55% . Inhibition constants (Ki values) were calculated using the EBDA/LIGAND program (McPherson, J. Pharmacol. Meth. 1985, 14, 213-228), purchased from Elsevier/Biosoft, Inc. Results are reported as Ki values or as a percent (%) inhibition of binding at 10

Compound | Ki [nM] | Percent inhibition, [3H]TCP (internal screen) (@ 10 μM) [%]
12,12-Diethylamino-13-phenyl-6,11-ethano-6,11-dihydrobenzo[b]quinolizinium perchlorate [63(j)] | 14400 | 
CCOC1(OCC)C2c3ccccc3C([n+]3ccccc32)C1(C)C (single isomer, unassigned) [7(b), 12,12-diethoxy-13,13-dimethyl-6,11-ethano-6,11-dihydrobenzo[b]quinolizinium·-[(-)-DBT]] | 14.1 | 
CCOC1(OCC)C2c3cc(OC)ccc3C([n+]3ccccc32)C1(C)C (single isomer, unassigned) [20(c), 9-methoxy-12,12-diethoxy-13,13-dimethyl-6,11-ethano-6,11-dihydrobenzo[b]quinolizinium chloride] | 7.05 | 
C[C@@H]1C[C@@H](C)OC2(O1)C1c3ccccc3C([n+]3ccccc31)C2(C)C (single isomer, unassigned) [Example 10(b)] | 614 | 
C[C@@H]1C[C@@H](C)OC2(O1)C1c3ccccc3C([n+]3ccccc31)C2(C)C (single isomer, unassigned) [Example 10(c)] | 365 | 
CCOC1(OCC)C2c3ccccc3C(C1Cl)[n+]1ccccc12 (single isomer, unassigned) [Example 42, 6,11-ethano-12,12-diethoxy-13-chloroquinolizinium perchlorate] | 319 | 
CCOC1C2c3ccccc3C([n+]3ccccc32)C1(C)C (single isomer, unassigned) [Example 49, 6,11-ethano-12-ethoxy-13,13-dimethyl-6,11-dihydrorbenzo[b]quinolizinium perchlorate] | 515 | 
CCN(CC)C1C2c3ccccc3C(C1C)[n+]1ccccc12 (single isomer, unassigned) [Example 61, 6,11-ethano-12-(diethyl) amino-13-methyl-6,11-dihydrobenzo[b]quinolizinium diperchlorate] | 5420 | 
CCOC1(OCC)C2c3c(OC(C)=O)cccc3C([n+]3ccccc32)C1(C)C.[O-][Cl+3]([O-])([O-])[O-] (centres unmarked) [15(a), 10-acetoxy-12,12-diethoxy-13,13-dimethyl-6,11-ethano-6,11-dihydrobenzo[b]quinolizinium perchlorate] | 26.4 | 
CCOC1(OCC)C2c3c(O)cccc3C([n+]3ccccc32)C1(C)C.[O-][Cl+3]([O-])([O-])[O-] (centres unmarked) [15(b), 10-hydroxy-12,12-diethoxy-13,13-dimethyl-6,11-ethano-6,11-dihydrobenzo[b]quinolizinium perchlorate] | 7.87 | 
CCOC1(OCC)C2c3c(O)cccc3C([n+]3ccccc32)C1(C)C (centres unmarked) [15(c), 10-hydroxy-12,12-diethoxy-13,13-dimethyl-6,11-ethano-6,11-dihydrobenzo[b]quinolizinium chloride] | 6.9 | 
CCOC1(OCC)C2c3ccccc3C([n+]3ccccc32)C1(CC)CC (centres unmarked) [17(c), 12,12-diethoxy-13,13-diethyl-6,11-ethano-6,11-dihydrobenzo[b]quinoliziniumperchlorate] | 10.6 | 
CCOC1(OCC)C2c3c(OC)cccc3C([n+]3ccccc32)C1(C)C (centres unmarked) [19(b), 10-methoxy-12,12-diethoxy-13-13-dimethyl-6,11-ethano-6,11-dihydrobenzo[b]quinolizinium perchlorate] | 13.2 | 
CC1(C)C2c3ccccc3C(c3cccc[n+]32)C12OCCCO2 (centres unmarked) [22(b), 6,11-ethano-12,12-(1,3-propanediolketal)-13,13-dimethyl-6,11-dihydrobenzo[b]quinolizinium chloride] | 3300 | 
CCOC1(OCC)C2c3cc(C(F)(F)F)ccc3C([n+]3ccccc32)C1(C)C (centres unmarked) [23(b), 6,11-ethano-12,12-diethoxy-13,13-dimethyl-9-trifluoromethyl-6,11-dihydrobenzo[b]quinolizinium chloride] | 407 | 
CCOC1(OCC)C2c3c(F)cc(F)cc3C([n+]3ccccc32)C1(C)C (centres unmarked) [24(b), 6,11-ethano-12,12-diethoxy-13,13-dimethyl-8,10-difluoro-6,11-dihydrobenzo-[b]quinolizinium chloride] | 272 | 
CCOC1(OCC)C2c3ccc(OC)cc3C([n+]3ccccc32)C1(C)C (centres unmarked) [25(b), 6,11-ethano-12,12-diethoxy-13,13-dimethyl-8-methoxy-6,11-dihydrobenzo[b]quinolizinium chloride] | 147 | 
CCOC1(OCC)C2c3ccccc3C([n+]3c(C)cccc32)C1(C)C (centres unmarked) [27(b), 6,11-ethano-12,12-diethoxy-13,13-dimethyl-4-methyl-6,11-dihydrobenzo[b]quinolizinium chloride] | 314 | 
CCOC1(OCC)C2c3c(OC(C)C)cccc3C([n+]3ccccc32)C1(C)C (centres unmarked) [34(b), 6,11-ethano-12,12-diethoxy-13,13-dimethyl-10-isopropoxy-6,11-dihydrobenzo[b]quinolizinium chloride] | 47.5 | 
CCOC1(OCC)CC2c3ccccc3C1c1cccc[n+]12 (centres unmarked) [63(a), 12,12-Diethoxy-6,11-ethano-6,11-dihydrobenzo[b]quinolizinium bromide] | 3590 | 
CCOC1(OCC)C2c3ccccc3C(C1C)[n+]1ccccc12.[O-][Cl+3]([O-])([O-])[O-] (centres unmarked) [63(d), 12,12-Diethoxy-13-methyl-6,11-ethano-6,11-dihydrobenzo[b]quinolizinium perchlorate] | 49.3 | 
CCOC1(OCC)C2c3cccc(C)c3C(C1C)[n+]1ccccc12.[O-][Cl+3]([O-])([O-])[O-] (centres unmarked) [63(k), 7-Methyl-12,12-diethoxy-13-methyl-6,11-ethano-6,11-dihydrobenzo[b]quinolizinium perchlorate] | 2460 | 
CCOC1(OCC)C(C)C2c3ccccc3C1(C)c1cccc[n+]12.[O-][Cl+3]([O-])([O-])[O-] (centres unmarked) [63(l), 11-Methyl-12,12-diethoxy-13-methyl-6,11-ethano-6,11-dihydrobenzo[b]quinolizinium perchlorate] | 39.3 | 
COC1(OC)C2c3ccccc3C([n+]3ccccc32)C1(C)C.[O-][Cl+3]([O-])([O-])[O-] (centres unmarked) [63(m), 12,12-dimethoxy-13,13-dimethyl-6,11-ethano-6,11-dihydrobenzo[b]quinolizinium perchlorate] | 111 | 
CCOC1(OCC)C2c3ccccc3C([n+]3ccccc32)C1(C)C (centres unmarked) [Example 3, 12,12-diethoxy-13,13-dimethyl-6,11-ethano-6,11-dihydrobenzo[b]quinolizinium hexafluorophosphate] | 5.56 | 
CCOC1(OCC)C2c3ccccc3C([n+]3ccccc32)C1(C)C (centres unmarked) [Example 4, 12,12-diethoxy-13,13-dimethyl-6,11-ethano-6,11-dihydrobenzo[b]quinolizinium camphanate] | 5.66 | 
CCOC1(OCC)C2c3ccccc3C([n+]3ccccc32)C1(C)C [Example 5, 12,12-diethoxy-13,13-dimethyl-6,11-ethano-6,11-dihydrobenzo[b]quinolizinium (S)-(+)-CH3 C(Ph)(OH)CO2^-] | 5.25 | 
CCOC1(OCC)C2c3ccccc3C([n+]3ccccc32)C1(OCC)OCC (centres unmarked) [Example 8, 12,12,13,13,-tetraethoxy-6,11-ethane-6,11-dihydrobenzo[b]quinolizinium perchlorate] | 5180 | 
CC1(C)C2c3ccccc3C(c3cccc[n+]32)C12O[C@H](COCc1ccccc1)[C@@H](COCc1ccccc1)O2 (stereo partly drawn) [Example 9, 12,12-(1R,2R-dibenzyloxymethyl-ethanediolketal)-13,13-dimethyl-6,11-ethano-6,11-dihydrobenzo[b]quinolizinium perchlorate] |  | 11

From US5380729A, “12-hetero substituted 6,11-ethano-6,11-dihydrobenzo (b) quinolizinium salts and compositions and method of use thereof” (Sterling Winthrop Inc., priority 1993, dated 1995)
